Results taken from US20250313535A1, “ALPHA 4 BETA 7 INTEGRIN MODULATORS AND USES THEREOF” (DICE MOLECULES SV, INC., priority 2022, published 2025).

Key:
[1] = target: α4β7 integrin (Homo sapiens (Human), UniProt P13612+P26010); assay: Integrin Adhesion Assay: Protocol 1 (MAdCAM-coated plate, RPMI-8866 cells, CellTiter GLO readout); type: cell-based; details: integrin adhesion assay; determined by at least one of the assays described (protocol not specified)
Summary of the method: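 RPMI-8866 cells (2×10^6 per mL) added with compounds (1% DMSO) to MAdCAM-coated wells blocked in HEPES/NaCl buffer with 1 mM MnCl2, 0.1 mM CaCl2, 1% BSA; 1 h at 37° C, 5% CO2. After four washes, bound cells read by CellTiter GLO luminescence; % inhibition vs DMSO and control wells, 4-parameter fit.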

[2] = target: α4β1 integrin (Homo sapiens (Human), UniProt P05556+P13612); assay: Integrin Adhesion Assay: Protocol 2 (VCAM-coated plate, Jurkat cells, CellTiter GLO readout); type: cell-based; details: determined by at least one of the assays described (protocol not specified)
Summary of the method: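 Jurkat cells (2×10^6 per mL) adhered to VCAM-coated (0.1 ug/well), BSA-blocked wells with compound (1% DMSO) for 1 h at 37° C in 10 mM HEPES, 150 mM NaCl, 1 mM MnCl2, 0.1 mM CaCl2. After four washes, bound cells were quantified by CellTiter-Glo luminescence. Percent inhibition versus DMSO and control-compound wells was fitted to a 4-parameter curve.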

[3] = test system: patients; details: clinical trials; at the end of one year of treatment; cited from earlier work

Chain of α4β1 integrin (P13612 34-1032): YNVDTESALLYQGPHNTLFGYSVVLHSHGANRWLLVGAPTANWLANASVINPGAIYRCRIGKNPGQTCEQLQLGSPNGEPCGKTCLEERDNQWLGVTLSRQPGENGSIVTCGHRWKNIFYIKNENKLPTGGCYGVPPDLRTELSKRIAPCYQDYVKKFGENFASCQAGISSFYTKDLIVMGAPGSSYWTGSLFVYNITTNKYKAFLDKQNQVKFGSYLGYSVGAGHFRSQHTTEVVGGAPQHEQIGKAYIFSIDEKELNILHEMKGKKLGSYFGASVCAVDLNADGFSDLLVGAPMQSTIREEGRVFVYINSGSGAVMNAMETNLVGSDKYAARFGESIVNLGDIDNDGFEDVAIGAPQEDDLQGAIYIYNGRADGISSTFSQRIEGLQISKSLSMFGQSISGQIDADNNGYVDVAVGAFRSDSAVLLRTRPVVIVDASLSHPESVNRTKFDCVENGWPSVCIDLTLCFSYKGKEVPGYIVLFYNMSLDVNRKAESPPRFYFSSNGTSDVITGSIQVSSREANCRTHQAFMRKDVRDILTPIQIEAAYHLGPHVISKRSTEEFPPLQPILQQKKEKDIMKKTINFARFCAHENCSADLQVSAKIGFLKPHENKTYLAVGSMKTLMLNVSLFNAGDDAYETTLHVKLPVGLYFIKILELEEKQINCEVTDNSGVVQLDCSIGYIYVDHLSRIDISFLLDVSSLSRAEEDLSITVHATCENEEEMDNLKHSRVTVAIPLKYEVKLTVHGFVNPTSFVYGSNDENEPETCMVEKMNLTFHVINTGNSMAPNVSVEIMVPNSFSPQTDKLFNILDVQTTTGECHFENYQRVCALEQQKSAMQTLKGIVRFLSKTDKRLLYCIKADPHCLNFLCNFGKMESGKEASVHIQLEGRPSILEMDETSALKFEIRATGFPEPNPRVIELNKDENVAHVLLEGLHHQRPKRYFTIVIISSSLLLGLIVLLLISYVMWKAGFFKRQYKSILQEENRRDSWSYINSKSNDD
Chain of α4β1 integrin (P05556 21-798): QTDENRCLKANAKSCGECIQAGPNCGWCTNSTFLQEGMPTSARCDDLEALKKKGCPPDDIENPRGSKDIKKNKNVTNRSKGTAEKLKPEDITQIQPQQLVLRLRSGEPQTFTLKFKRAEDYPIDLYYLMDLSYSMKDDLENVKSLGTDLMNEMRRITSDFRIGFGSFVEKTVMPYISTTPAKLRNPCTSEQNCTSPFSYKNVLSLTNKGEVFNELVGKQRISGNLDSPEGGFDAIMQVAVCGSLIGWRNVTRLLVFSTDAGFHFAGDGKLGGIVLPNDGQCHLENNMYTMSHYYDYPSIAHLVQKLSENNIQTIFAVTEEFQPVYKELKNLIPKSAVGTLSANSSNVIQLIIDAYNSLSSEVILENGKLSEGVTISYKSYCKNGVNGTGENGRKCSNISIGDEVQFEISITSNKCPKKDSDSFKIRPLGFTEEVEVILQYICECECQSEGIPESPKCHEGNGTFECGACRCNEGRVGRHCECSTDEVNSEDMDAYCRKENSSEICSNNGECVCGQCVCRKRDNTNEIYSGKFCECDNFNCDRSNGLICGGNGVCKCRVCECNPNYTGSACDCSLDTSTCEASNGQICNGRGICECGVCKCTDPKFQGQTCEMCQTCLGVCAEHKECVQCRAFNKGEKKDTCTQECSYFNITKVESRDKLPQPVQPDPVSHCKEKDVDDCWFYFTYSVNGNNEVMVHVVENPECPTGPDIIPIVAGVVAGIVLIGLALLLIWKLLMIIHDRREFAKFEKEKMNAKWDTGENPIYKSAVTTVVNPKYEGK
Chain of α4β7 integrin (P13612 34-1032): as the sequence (P13612 34-1032) above
Chain of α4β7 integrin (P26010 20-798): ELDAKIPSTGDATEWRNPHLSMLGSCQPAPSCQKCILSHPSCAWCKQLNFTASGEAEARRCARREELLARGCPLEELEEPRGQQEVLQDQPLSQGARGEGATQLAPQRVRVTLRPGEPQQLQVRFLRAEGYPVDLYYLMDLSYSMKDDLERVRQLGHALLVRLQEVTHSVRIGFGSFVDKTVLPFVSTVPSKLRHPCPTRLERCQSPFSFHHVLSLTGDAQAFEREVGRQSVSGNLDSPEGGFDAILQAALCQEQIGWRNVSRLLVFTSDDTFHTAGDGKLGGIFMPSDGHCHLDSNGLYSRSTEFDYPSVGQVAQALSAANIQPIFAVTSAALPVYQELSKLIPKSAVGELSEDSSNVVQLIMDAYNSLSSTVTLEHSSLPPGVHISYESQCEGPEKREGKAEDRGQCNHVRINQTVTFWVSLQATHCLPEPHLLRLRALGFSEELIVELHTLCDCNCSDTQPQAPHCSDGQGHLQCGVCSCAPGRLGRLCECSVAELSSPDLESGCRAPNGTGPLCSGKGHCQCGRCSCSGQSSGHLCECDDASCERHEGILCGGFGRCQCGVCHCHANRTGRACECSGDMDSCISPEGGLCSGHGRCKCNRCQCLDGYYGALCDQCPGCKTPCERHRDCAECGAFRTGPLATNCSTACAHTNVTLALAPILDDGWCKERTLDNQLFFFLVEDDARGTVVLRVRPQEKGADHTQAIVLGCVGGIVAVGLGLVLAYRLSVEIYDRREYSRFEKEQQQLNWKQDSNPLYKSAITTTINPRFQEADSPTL

Molecule	IC50 [1]	IC50 [2]	patients receiving ENTYVIO achieved remission [3]
Cc1cc(N2CCOC[C@@H]2C(F)(F)F)cc(F)c1C(=O)N[C@@H](Cc1cccc2c(-c3c(C(F)(F)F)ccn(C)c3=O)nccc12)C(=O)O [Compound 215]	< 10 nM	> 1000 nM	–
C[C@H]1COCCN1c1cc(F)c(C(=O)N[C@@H](Cc2cccc3c(-c4c(C(F)(F)F)ccn(C)c4=O)nccc23)C(=O)O)c(F)c1 [Compound 216]	10 to 100 nM	> 1000 nM	–
Cn1ccc(C(F)(F)F)c(-c2nccc3c(C[C@H](NC(=O)c4c(F)cc(N5CCOCC56CC6)cc4F)C(=O)O)cccc23)c1=O [Compound 217]	< 10 nM	> 1000 nM	–
Cn1ccc(C(F)(F)F)c(-c2nccc3c(C[C@H](NC(=O)c4c(F)cc(N5CCOC[C@H]5C(F)(F)F)cc4F)C(=O)O)cccc23)c1=O [Compound 218]	10 to 100 nM	> 1000 nM	–
O=C(N[C@@H](Cc1cccc2c(-c3cccc4ccncc34)nccc12)C(=O)O)c1c(F)cc(N2CCOC[C@@H]2C(F)(F)F)cc1F [Compound 220]	10 to 100 nM	> 1000 nM	–
O=C(N[C@@H](Cc1cccc2c(-c3cccc4ccncc34)nccc12)C(=O)O)c1c(F)cc(N(CC(F)(F)F)CC(F)(F)F)cc1CN1CCCC1 [Compound 222]	< 10 nM	> 1000 nM	–
O=C(N[C@@H](Cc1cccc2c(-c3cccc4ccncc34)nccc12)C(=O)O)c1c(F)cc(CN2CCOCC2)cc1F [Compound 223]	> 1000 nM	> 1000 nM	–
Cn1ccc(C(F)(F)F)c(-c2nccc3c(C[C@H](NC(=O)c4c(Cl)cc(N5CCOC[C@@H]5C(F)(F)F)cc4CN4CCC(F)(F)CC4)C(=O)O)cccc23)c1=O [Compound 224]	10 to 100 nM	> 1000 nM	–
Cn1ccc(C(F)(F)F)c(-c2nccc3c(C[C@H](NC(=O)c4c(Cl)cc(N5CCOC[C@@H]5C(F)(F)F)cc4CN4CCOCC4)C(=O)O)cccc23)c1=O [Compound 225]	< 10 nM	> 1000 nM	–
Cn1ccc(C(F)(F)F)c(-c2nccc3c(C[C@H](NC(=O)c4c(F)cc(N5CCOC[C@@H]5C(F)(F)F)cc4CN4CCC(F)(F)CC4)C(=O)O)cccc23)c1=O [Compound 226]	< 10 nM	> 1000 nM	–
Cn1ccc(C(F)(F)F)c(-c2nccc3c(C[C@H](NC(=O)c4c(CN5CCOCC5)cc(N5CCOC[C@@H]5C(F)(F)F)cc4C(F)(F)F)C(=O)O)cccc23)c1=O [Compound 227]	> 1000 nM	> 1000 nM	–
Cn1ccc(C(F)(F)F)c(-c2nccc3c(C[C@H](NC(=O)c4cc(F)cc(CSc5ccccc5)c4)C(=O)O)cccc23)c1=O [Compound 229]	> 1000 nM	> 1000 nM	–
Cn1ccc(C(F)(F)F)c(-c2nccc3c(C[C@H](NC(=O)c4c(F)cc(N5CCOC[C@@H]5C(F)(F)F)cc4CN4CCOCC4)C(=O)O)cccc23)c1=O [Compound 245]	< 10 nM	> 1000 nM	–
Cn1ccc(C(F)(F)F)c(-c2nccc3c(C[C@H](NC(=O)c4c(F)cc(CN5CCOCC5)cc4F)C(=O)O)cccc23)c1=O [Compound 246]	100 to 1000 nM	> 1000 nM	–
CN1CCN(Cc2cc(N3CCOC[C@@H]3C(F)(F)F)cc(F)c2C(=O)N[C@@H](Cc2cccc3c(-c4c(C(F)(F)F)ccn(C)c4=O)nccc23)C(=O)O)CC1 [Compound 248]	< 10 nM	> 1000 nM	–
CN1CCN(c2cc(F)c(C(=O)N[C@@H](Cc3cccc4c(-c5c(C(F)(F)F)ccn(C)c5=O)nccc34)C(=O)O)c(F)c2)[C@@H](C(F)(F)F)C1 [Compound 249]	10 to 100 nM	> 1000 nM	–
Cn1ccc(C(F)(F)F)c(-c2nccc3c(C[C@H](NC(=O)c4c(F)cc(N5CCOC[C@@H]5C5CC5)cc4F)C(=O)O)cccc23)c1=O [Compound 251]	< 10 nM	> 1000 nM	–
Cn1ccc(C(F)(F)F)c(-c2nccc3c(C[C@H](NC(=O)c4c(F)cc(N(CC(F)(F)F)CC(F)(F)F)cc4CN4CCCC4)C(=O)O)cccc23)c1=O [Compound 252]	< 10 nM	> 1000 nM	–
Cn1ccc(C(F)(F)F)c(-c2nccc3c(C[C@H](NC(=O)c4c(F)cc(N5CCOC[C@@H]5C(F)(F)F)cc4CN4CCCC4)C(=O)O)cccc23)c1=O [Compound 253]	< 10 nM	> 1000 nM	–
Cn1ccc(C(F)(F)F)c(-c2nccc3c(C[C@H](NC(=O)c4c(F)cc(NCC(F)(F)F)cc4CN4CCCC4)C(=O)O)cccc23)c1=O [Compound 254]	< 10 nM	> 1000 nM	–
O=C(N[C@@H](Cc1cccc2c(-c3cccc4ccncc34)nccc12)C(=O)O)c1c(F)cc(N2CCOC[C@@H]2C(F)(F)F)cc1CN1CCCC1 [Compound 255]	< 10 nM	100 to 1000 nM	–
O=C(N[C@@H](Cc1cccc2c(-c3cccc4ccncc34)nccc12)C(=O)O)c1c(F)cc(NCC(F)(F)F)cc1CN1CCCC1 [Compound 256]	10 to 100 nM	> 1000 nM	–
Cn1ccc(C(F)(F)F)c(-c2nccc3c(C[C@H](NC(=O)c4c(F)cc(N5CCOC[C@H]5C5CC5)cc4F)C(=O)O)cccc23)c1=O [Compound 257]	10 to 100 nM	> 1000 nM	–
Cn1ccc(C(F)(F)F)c(-c2nccc3c(C[C@H](NC(=O)c4c(F)cccc4C(F)(F)F)C(=O)O)cccc23)c1=O [Compound 258]	100 to 1000 nM	> 1000 nM	–
CCOCc1cc(OC)c(-c2nccc3c(C[C@H](NC(=O)c4c(F)cc(N5CCOC[C@@H]5C(F)(F)F)cc4F)C(=O)O)cccc23)c(OC)c1 [Compound 259]	< 10 nM	100 to 1000 nM	–
CCOCc1cc(OC)c(-c2nccc3c(C[C@H](NC(=O)c4c(F)cccc4F)C(=O)O)cccc23)c(OC)c1 [Compound 260]	10 to 100 nM	100 to 1000 nM	–
vedolizumab [ENTYVIO]	–	–	approximately 30%
